Values quoted from earlier work, collected in patent publication US20180280562A1, “Fibrous Structures Comprising Sensates” (The Procter & Gamble Company, priority 2017, published 2018).

Conditions: concentration where the cooling effect could be clearly recognized
In the case of CC(C)[C@@H]1CC[C@@H](C)C[C@@H]1O [1-neomenthol], the cooling threshold is given as “about 3,000 ppb”.
In the case of CC(C)[C@@H]1CC[C@@H](C)C[C@H]1O [L-menthol], the cooling threshold is listed as “about 800 ppb”.
In the case of CC(C)[C@@H]1CC[C@@H](C)C[C@@H]1O [d-neomenthol], the cooling threshold is given as “about 25,000 ppb”.
